Values after ≈ are worked out from the molar mass of the structure shown. Read-outs that look alike come from different tables or passages of the source.
Assays:
[1] = Kinetic solubility, spectrophotometric; assay type: physicochemical; details: aqueous buffer, kinetic from dmso stock, spectrophotometrically at pH 7.4 in HEPES buffer
[2] = target: T1, cKIT kinase (Homo sapiens, UniProt P10721); experiment: KIT inhibition (KD), TR-FRET tracer displacement; assay type: binding; details: kinase tracer 236, anti-GST antibody Eu-conjugate, read-out: KIT enz. KD
T1 construct: purchased Carna Biosciences

[3] = Mouse liver microsome intrinsic clearance, Phase I; assay type: in vitro ADME; details: in vitro intrinsic clearance
[4] = MDCK permeability assay; assay type: in vitro ADME, canine; details: dog, MDCK cell monolayer
[5] = Mouse plasma protein binding; assay type: in vitro ADME; details: fraction bound, read-out: PPB (converted)
[6] = test system: panel of 49 kinases; experiment: Selectivity score from the kinase panel; assay type: biochemical; details: 1000 nM
[7] = target: T2, AKT1 (PKB alpha) (Homo sapiens, UniProt P31749); experiment: Kinase panel profiling: AKT1; assay type: biochemical; details: ATP equal to KM
T2 construct: purchased Thermo Fisher Scientific (Invitrogen) SelectScreen (Z'-LYTE)

[8] = target: T3, ALK (Homo sapiens, UniProt Q9UM73); experiment: Kinase panel profiling: ALK; assay type: biochemical; details: ATP equal to KM
T3 construct: purchased Thermo Fisher Scientific (Invitrogen) SelectScreen (Z'-LYTE)

[9] = target: T4, AXL (Homo sapiens, UniProt P30530); experiment: Kinase panel profiling: AXL; assay type: biochemical; details: ATP equal to KM
T4 construct: purchased Thermo Fisher Scientific (Invitrogen) SelectScreen (Z'-LYTE)

[10] = target: T5, BTK (Homo sapiens, UniProt Q06187); experiment: Kinase panel profiling: BTK; assay type: biochemical; details: ATP equal to KM
T5 construct: purchased Thermo Fisher Scientific (Invitrogen) SelectScreen (Z'-LYTE)

[11] = target: T6, CLK1 (Homo sapiens, UniProt P49759); experiment: Kinase panel profiling: CLK1; assay type: biochemical; details: ATP equal to KM
T6 construct: purchased Thermo Fisher Scientific (Invitrogen) SelectScreen (Z'-LYTE)

[12] = target: T7, DAPK1 (Homo sapiens, UniProt P53355); experiment: Kinase panel profiling: DAPK1; assay type: biochemical; details: ATP equal to KM
T7 construct: purchased Thermo Fisher Scientific (Invitrogen) SelectScreen (Z'-LYTE)

[13] = target: T8, EPHA2 (Homo sapiens, UniProt P29317); experiment: Kinase panel profiling: EPHA2; assay type: biochemical; details: ATP equal to KM
T8 construct: purchased Thermo Fisher Scientific (Invitrogen) SelectScreen (Z'-LYTE)

[14] = target: T9, ERBB2 (HER2) (Homo sapiens, UniProt P04626); experiment: Kinase panel profiling: ERBB2; assay type: biochemical; details: ATP equal to KM
T9 construct: purchased Thermo Fisher Scientific (Invitrogen) SelectScreen (Z'-LYTE)

[15] = target: T10, FER (Homo sapiens, UniProt P16591); experiment: Kinase panel profiling: FER; assay type: biochemical; details: ATP equal to KM
T10 construct: purchased Thermo Fisher Scientific (Invitrogen) SelectScreen (Z'-LYTE)

[16] = target: T11, FGFR1 (Homo sapiens, UniProt P11362); experiment: Kinase panel profiling: FGFR1; assay type: biochemical; details: ATP equal to KM
T11 construct: purchased Thermo Fisher Scientific (Invitrogen) SelectScreen (Z'-LYTE)

[17] = target: T12, FLT1 (VEGFR1) (Homo sapiens, UniProt P17948); experiment: Kinase panel profiling: FLT1; assay type: biochemical; details: ATP equal to KM
T12 construct: purchased Thermo Fisher Scientific (Invitrogen) SelectScreen (Z'-LYTE)

[18] = target: T13, GSK3B (GSK3 beta) (Homo sapiens, UniProt P49841); experiment: Kinase panel profiling: GSK3B; assay type: biochemical; details: ATP equal to KM
T13 construct: purchased Thermo Fisher Scientific (Invitrogen) SelectScreen (Z'-LYTE)

[19] = target: T14, MINK1 (Homo sapiens, UniProt Q8N4C8); experiment: Kinase panel profiling: MINK1; assay type: biochemical; details: ATP equal to KM
T14 construct: purchased Thermo Fisher Scientific (Invitrogen) SelectScreen (Z'-LYTE)

[20] = target: T15, MUSK (Homo sapiens, UniProt O15146); experiment: Kinase panel profiling: MUSK; assay type: biochemical; details: ATP equal to KM
T15 construct: purchased Thermo Fisher Scientific (Invitrogen) SelectScreen (Z'-LYTE)
T15 sequence (O15146 24-869): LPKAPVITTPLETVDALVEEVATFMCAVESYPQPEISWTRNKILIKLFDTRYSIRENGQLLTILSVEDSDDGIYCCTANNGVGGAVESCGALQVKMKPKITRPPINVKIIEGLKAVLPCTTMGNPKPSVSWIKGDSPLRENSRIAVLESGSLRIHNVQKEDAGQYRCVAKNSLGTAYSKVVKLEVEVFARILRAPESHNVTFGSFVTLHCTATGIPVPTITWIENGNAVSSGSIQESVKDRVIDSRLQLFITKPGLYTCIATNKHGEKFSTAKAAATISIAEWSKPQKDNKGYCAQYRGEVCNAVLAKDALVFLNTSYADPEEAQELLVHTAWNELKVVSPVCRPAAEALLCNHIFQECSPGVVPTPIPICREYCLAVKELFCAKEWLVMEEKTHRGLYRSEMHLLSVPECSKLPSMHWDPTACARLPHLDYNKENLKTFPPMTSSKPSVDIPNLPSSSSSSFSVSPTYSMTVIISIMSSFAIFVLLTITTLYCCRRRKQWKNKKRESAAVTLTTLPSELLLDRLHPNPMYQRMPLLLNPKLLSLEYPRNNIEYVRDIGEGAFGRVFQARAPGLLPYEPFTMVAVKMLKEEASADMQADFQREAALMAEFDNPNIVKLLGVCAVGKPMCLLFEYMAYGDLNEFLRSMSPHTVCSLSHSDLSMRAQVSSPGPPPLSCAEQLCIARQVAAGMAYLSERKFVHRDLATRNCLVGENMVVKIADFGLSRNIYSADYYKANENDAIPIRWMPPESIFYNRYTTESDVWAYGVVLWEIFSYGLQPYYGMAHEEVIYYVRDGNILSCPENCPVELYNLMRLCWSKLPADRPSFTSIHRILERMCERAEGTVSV

[21] = target: PDGFRB (PDGFR beta) (Homo sapiens, UniProt P09619); experiment: Kinase panel profiling: PDGFRB; assay type: biochemical; details: ATP equal to KM
[22] = target: PLK1 (Homo sapiens, UniProt P53350); experiment: Kinase panel profiling: PLK1; assay type: biochemical; details: ATP equal to KM
[23] = target: TEK (Tie2) (Homo sapiens, UniProt Q02763); experiment: Kinase panel profiling: TEK; assay type: biochemical; details: ATP equal to KM
[24] = 1000 nM test concentration, read-out: Average inhibition (%)
[25] = 1000 nM, first data point, read-out: Inhibition (%)
[26] = 1000 nM, second data point, read-out: Inhibition (%)

Chain of PDGFRB (PDGFR beta) (P09619 33-1106): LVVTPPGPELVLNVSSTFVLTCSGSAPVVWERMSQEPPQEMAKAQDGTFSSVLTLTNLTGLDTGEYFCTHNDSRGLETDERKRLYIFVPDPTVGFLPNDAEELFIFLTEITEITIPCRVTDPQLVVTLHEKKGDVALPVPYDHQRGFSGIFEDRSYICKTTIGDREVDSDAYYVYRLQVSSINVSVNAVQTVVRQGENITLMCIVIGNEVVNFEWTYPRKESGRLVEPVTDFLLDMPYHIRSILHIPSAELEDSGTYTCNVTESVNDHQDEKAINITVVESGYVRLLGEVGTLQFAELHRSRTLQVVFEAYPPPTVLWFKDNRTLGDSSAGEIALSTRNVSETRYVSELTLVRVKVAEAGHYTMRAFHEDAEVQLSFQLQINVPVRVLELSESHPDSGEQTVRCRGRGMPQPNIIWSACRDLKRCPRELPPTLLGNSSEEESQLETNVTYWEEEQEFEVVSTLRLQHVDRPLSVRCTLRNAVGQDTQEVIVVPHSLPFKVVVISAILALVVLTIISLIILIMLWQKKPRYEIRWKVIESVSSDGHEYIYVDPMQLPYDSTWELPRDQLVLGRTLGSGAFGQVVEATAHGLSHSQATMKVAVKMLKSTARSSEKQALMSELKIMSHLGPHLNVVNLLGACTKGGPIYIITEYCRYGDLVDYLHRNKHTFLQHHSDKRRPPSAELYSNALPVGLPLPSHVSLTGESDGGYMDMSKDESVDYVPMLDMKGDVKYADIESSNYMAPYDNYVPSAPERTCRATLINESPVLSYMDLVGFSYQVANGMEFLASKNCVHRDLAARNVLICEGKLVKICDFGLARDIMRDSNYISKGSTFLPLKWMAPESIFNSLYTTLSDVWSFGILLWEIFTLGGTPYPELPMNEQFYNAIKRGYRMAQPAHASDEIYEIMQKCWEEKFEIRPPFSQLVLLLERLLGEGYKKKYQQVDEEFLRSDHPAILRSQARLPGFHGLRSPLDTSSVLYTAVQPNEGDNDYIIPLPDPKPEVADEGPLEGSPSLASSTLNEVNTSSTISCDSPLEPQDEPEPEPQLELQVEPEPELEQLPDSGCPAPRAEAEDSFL
T5 sequence (Q06187 whole entry): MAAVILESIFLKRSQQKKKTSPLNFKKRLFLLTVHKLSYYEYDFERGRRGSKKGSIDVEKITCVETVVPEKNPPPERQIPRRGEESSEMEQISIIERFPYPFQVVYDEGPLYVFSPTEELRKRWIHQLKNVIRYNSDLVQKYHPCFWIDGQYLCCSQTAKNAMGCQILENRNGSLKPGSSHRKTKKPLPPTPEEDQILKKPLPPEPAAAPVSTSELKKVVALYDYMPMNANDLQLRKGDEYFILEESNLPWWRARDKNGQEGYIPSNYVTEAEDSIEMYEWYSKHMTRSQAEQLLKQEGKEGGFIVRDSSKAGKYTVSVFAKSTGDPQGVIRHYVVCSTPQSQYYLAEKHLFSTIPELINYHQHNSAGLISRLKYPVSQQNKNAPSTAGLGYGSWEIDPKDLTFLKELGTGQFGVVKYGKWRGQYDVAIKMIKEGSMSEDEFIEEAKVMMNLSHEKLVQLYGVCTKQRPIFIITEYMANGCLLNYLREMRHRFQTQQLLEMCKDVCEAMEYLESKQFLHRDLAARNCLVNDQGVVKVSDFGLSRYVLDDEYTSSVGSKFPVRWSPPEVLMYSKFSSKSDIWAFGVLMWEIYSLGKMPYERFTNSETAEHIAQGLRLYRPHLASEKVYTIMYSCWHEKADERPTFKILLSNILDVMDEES
T9 sequence (P04626 23-1255): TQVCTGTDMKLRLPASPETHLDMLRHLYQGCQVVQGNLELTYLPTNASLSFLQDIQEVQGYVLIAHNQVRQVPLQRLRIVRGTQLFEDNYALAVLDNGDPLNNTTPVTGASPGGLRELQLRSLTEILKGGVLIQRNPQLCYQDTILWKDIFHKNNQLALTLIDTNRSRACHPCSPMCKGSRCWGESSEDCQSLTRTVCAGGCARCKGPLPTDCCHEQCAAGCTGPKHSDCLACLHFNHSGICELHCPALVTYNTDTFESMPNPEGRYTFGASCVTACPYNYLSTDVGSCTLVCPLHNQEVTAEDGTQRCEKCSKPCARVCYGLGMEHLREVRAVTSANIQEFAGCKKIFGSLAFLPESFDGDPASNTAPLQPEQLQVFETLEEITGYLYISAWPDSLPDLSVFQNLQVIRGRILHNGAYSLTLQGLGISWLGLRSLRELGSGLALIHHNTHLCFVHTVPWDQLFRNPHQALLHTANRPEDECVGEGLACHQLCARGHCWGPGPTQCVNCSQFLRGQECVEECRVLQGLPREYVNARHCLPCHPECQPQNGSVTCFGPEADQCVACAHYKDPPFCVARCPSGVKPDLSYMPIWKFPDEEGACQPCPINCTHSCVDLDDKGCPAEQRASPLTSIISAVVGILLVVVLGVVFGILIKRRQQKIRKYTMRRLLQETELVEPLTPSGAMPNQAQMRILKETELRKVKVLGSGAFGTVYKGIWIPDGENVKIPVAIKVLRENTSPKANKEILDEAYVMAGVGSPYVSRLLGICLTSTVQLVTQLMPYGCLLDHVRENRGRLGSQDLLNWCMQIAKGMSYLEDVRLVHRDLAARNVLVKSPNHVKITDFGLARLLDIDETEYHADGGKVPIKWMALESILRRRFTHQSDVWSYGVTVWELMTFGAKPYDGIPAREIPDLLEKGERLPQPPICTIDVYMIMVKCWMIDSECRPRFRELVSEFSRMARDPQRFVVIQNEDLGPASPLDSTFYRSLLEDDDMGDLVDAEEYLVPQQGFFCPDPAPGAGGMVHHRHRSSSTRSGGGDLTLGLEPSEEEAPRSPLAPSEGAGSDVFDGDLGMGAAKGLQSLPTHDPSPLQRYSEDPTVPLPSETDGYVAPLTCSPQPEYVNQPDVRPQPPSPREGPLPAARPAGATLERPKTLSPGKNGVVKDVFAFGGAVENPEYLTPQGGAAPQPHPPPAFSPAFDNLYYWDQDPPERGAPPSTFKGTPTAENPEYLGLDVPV
T11 sequence (P11362 22-822): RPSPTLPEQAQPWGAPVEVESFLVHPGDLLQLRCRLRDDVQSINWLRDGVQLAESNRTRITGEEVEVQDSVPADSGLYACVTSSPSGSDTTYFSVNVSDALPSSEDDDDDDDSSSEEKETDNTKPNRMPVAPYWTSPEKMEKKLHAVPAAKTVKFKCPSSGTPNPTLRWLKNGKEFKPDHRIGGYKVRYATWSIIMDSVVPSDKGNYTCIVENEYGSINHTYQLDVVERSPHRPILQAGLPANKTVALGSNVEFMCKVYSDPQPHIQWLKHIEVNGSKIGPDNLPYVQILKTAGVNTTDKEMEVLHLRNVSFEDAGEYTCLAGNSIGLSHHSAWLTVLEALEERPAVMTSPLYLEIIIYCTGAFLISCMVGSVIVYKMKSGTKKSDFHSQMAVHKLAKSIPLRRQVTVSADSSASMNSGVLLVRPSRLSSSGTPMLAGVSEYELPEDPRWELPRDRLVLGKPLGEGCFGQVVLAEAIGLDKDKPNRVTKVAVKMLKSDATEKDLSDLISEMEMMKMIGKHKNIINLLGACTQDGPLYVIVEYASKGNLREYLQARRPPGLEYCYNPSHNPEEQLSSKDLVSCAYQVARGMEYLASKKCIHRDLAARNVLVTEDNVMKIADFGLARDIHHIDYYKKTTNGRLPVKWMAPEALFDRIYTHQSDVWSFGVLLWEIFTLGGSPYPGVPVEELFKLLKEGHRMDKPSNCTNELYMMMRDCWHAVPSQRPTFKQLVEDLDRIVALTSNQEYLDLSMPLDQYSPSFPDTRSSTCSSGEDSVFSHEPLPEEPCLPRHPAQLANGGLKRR
T12 sequence (P17948 27-1338): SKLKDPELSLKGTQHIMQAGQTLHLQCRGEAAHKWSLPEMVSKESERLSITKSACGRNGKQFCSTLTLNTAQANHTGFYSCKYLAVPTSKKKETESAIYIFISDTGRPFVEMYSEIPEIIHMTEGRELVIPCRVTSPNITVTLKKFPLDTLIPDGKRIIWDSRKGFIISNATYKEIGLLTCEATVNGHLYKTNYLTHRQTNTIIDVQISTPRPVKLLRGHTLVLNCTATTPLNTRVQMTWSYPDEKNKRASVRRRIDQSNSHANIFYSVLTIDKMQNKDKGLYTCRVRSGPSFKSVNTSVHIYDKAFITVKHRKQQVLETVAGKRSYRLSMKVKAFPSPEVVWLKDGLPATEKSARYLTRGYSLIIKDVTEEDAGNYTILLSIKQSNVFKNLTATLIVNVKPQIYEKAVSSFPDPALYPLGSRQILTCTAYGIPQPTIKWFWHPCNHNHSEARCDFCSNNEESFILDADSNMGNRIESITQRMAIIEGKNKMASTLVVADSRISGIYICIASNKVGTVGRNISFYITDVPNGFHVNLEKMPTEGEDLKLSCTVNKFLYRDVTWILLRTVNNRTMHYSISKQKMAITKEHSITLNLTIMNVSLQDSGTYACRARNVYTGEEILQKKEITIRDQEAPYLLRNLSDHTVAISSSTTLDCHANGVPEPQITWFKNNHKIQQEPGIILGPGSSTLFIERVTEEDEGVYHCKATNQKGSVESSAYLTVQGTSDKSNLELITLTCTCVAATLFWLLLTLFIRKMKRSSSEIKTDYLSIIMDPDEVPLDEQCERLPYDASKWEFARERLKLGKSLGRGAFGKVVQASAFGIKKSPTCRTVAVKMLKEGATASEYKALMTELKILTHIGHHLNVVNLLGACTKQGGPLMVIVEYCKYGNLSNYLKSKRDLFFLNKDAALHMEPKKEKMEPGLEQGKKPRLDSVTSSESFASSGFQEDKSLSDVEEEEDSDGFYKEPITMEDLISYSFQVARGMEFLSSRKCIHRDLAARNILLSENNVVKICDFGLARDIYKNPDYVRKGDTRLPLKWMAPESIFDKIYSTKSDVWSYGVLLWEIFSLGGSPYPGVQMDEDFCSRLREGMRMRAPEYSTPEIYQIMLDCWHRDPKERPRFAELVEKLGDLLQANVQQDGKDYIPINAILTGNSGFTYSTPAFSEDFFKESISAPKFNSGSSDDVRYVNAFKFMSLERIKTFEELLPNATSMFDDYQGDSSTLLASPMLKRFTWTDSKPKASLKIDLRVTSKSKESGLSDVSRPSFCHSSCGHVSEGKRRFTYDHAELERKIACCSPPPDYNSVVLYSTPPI

solubility kinetic [1]: 3.1 µM (≈ 1.27 µg/mL)
Kd [2]: 0.793 µM
MLM [3]: 295 µL/min/mg
Papp A→B ([4]; A-B direction): 12.7 nm/s
Papp B→A ([4]; B-A direction): 31.8 nm/s
efflux ratio ([4]; read-out: Ratio Papp B > A/Papp A > B): 2.5
fraction unbound [5]: < 0.01
selectivity score (S-score) ([6]; 30% inhibition as threshold): 0.51
selectivity score (S-score) ([6]; 50% inhibition as threshold): 0.35
inhibition at 1 µM [7, 24]: 2%
inhibition at 1 µM [7, 25]: 3%
inhibition at 1 µM [7, 26]: 1%
inhibition at 1 µM [8, 24]: 24%
inhibition at 1 µM [8, 25]: 24%
inhibition at 1 µM [8, 26]: 25%
inhibition at 1 µM [9, 24]: 16%
inhibition at 1 µM [9, 25]: 16%
inhibition at 1 µM [10, 24]: 46%
inhibition at 1 µM [10, 25]: 50%
inhibition at 1 µM [10, 26]: 42%
inhibition at 1 µM [11, 24]: 8%
inhibition at 1 µM [11, 25]: 8%
inhibition at 1 µM [12, 24]: 4%
inhibition at 1 µM [12, 25]: 13%
inhibition at 1 µM [12, 26]: -5%
inhibition at 1 µM [13, 24]: 89%
inhibition at 1 µM [13, 25]: 88%
inhibition at 1 µM [13, 26]: 91%
inhibition at 1 µM [14, 24]: 32%
inhibition at 1 µM [14, 25]: 33%
inhibition at 1 µM [14, 26]: 32%
inhibition at 1 µM [15, 24]: 15%
inhibition at 1 µM [15, 25]: 16%
inhibition at 1 µM [15, 26]: 14%
inhibition at 1 µM [16, 24]: 9%
inhibition at 1 µM [16, 25]: 9%
inhibition at 1 µM [16, 26]: 8%
inhibition at 1 µM [17, 24]: 31%
inhibition at 1 µM [17, 25]: 32%
inhibition at 1 µM [17, 26]: 30%
inhibition at 1 µM [18, 24]: 61%
inhibition at 1 µM [18, 25]: 59%
inhibition at 1 µM [18, 26]: 62%
inhibition at 1 µM [19, 24]: 76%
inhibition at 1 µM [19, 25]: 75%
inhibition at 1 µM [19, 26]: 77%
inhibition at 1 µM [20, 24]: 72%
inhibition at 1 µM [20, 25]: 73%
inhibition at 1 µM [20, 26]: 72%
inhibition at 1 µM [21, 24]: 34%
inhibition at 1 µM [21, 25]: 32%
inhibition at 1 µM [21, 26]: 35%
inhibition at 1 µM [22, 24]: 6%
inhibition at 1 µM [22, 25]: 5%
inhibition at 1 µM [22, 26]: 6%
inhibition at 1 µM [23, 24]: 42%
inhibition at 1 µM [23, 25]: 44%
inhibition at 1 µM [23, 26]: 40%
Structure (SMILES): Cc1cccc(CN(C)c2ncnc3[nH]c(-c4cn(Cc5cccnc5)nn4)cc23)c1 [Compound 27a, N-Methyl-N-(3-methylbenzyl)-6-(1-(pyridin-3-ylmethyl)-1H-1,2,3-triazol-4-yl)-7H-pyrrolo[2,3-d]pyrimidin-4-amine]

Reference: publication PMC12196347, “Evaluating Triazole-Substituted Pyrrolopyrimidines as CSF1R Inhibitors” (Molecules, 2025)
